One test deals with T1, rat P2X3 receptor (Rattus norvegicus, UniProt P49654).
T1 construct: expressed in transfected cells; host or cells: CHO-K1
T1 sequence (P49654 1-397): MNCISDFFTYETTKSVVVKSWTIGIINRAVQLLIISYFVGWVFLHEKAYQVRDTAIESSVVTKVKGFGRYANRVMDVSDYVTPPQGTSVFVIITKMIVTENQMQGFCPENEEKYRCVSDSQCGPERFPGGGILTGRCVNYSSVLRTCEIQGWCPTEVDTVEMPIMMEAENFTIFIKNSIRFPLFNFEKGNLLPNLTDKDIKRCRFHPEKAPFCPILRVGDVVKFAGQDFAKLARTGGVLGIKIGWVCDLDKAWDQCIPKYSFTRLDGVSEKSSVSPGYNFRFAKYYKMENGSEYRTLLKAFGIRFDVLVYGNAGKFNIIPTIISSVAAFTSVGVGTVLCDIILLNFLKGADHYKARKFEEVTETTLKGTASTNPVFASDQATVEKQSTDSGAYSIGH
The experiment in a line: P2X3 FLIPR (Fluorometric Imaging Plate Reader) assay. Type of test: cell-based. The note with it: CHO-K1 cells transfected with rat P2X3; agonist α,β-meATP 1 μM; Fluo-3 calcium fluorescence. The procedure:
(§1) CHO-K1 cells were transfected with cloned rat P2X3 or human P2X2/3 receptor subunits and passaged in flasks. 18-24 hours before the FLIPR experiment, cells were released from their flasks, centrifuged, and resuspended in nutrient medium at 2.5×10^5 cells/ml. The cells were aliquoted into black-walled 96-well plates at a density of 50,000 cells/well and incubated overnight in 5% CO2 at 37° C. On the day of the experiment, cells were washed in FLIPR buffer (calcium- and magnesium-free Hank's balanced salt solution, 10 mM HEPES, 2 mM CaCl2, 2.5 mM probenecid; FB). Each well received 100 μl FB and 100 μl of the fluorescent dye Fluo-3 AM [2 μM final conc.]. […]
(§2) Test compounds (dissolved in DMSO at 10 mM and serially diluted with FB) or vehicle were added to each well (25 μl of a 4× solution) and allowed to equilibrate for 20 minutes at room temperature. The plates were then placed in the FLIPR and a baseline fluorescence measurement (excitation at 488 nm and emission at 510-570 nm) was obtained for 10 seconds before a 100 μl/well agonist or vehicle addition. […] Fluorescence was measured for an additional 2 minutes at 1 second intervals after agonist addition. A final addition of ionomycin (5 μM, final concentration) was made to each well of the FLIPR test plate to establish cell viability and maximum fluorescence of dye-bound cytosolic calcium. […]

The next test deals with T2, human P2X2/3 receptor (Homo sapiens, UniProt P56373+Q9UBL9).
T2 construct: expressed in transfected cells; host or cells: CHO-K1
T2 sequence (Q9UBL9 1-471): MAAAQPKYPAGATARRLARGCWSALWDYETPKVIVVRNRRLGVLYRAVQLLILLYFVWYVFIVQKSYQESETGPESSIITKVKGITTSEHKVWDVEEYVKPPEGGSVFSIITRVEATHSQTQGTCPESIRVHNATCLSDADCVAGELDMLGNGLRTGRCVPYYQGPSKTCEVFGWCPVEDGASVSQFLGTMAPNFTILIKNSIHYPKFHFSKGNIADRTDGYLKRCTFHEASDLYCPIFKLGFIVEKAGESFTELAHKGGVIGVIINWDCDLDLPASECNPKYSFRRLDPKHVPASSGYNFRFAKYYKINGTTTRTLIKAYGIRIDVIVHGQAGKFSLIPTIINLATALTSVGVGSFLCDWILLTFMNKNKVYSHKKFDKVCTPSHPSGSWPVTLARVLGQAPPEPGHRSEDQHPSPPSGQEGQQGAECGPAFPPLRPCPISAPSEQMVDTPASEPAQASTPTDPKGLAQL
T2 sequence (P56373 1-397): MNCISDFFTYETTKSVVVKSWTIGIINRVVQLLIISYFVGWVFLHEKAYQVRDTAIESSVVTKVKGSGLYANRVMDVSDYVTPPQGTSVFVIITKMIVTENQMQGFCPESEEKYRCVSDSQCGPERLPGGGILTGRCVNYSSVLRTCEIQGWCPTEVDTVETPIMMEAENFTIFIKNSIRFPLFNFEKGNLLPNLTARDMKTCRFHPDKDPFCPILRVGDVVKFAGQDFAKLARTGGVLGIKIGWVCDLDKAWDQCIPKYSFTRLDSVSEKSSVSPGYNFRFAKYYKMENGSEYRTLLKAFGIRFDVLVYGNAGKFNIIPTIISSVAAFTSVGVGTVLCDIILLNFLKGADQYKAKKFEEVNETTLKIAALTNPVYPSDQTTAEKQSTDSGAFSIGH
The experiment in a line: P2X2/3 FLIPR (Fluorometric Imaging Plate Reader) assay. It counts as cell-based. The note with it: CHO-K1 cells transfected with human P2X2/3; agonist α,β-meATP 5 μM; Fluo-3 calcium fluorescence. The procedure:
as §1, §2

As a reminder, the pIC50 is the IC50 on a negative log10 scale, so that one unit is a factor of ten.

pIC50: −log10 of the molar value.

On to `Cc1cccc(-n2cc(-c3ccc(F)cc3)c3c(NC4CCOCC4)ncnc32)c1` [Compound 11, [5-(4-Fluoro-phenyl)-7-m-tolyl-7H-pyrrolo[2,3-d]pyrimidin-4-yl]-(tetrahydro-pyran-4-yl)-amine], for which the pIC50 at rat P2X3 receptor is around 6.51.
For `Cc1ccc(-n2cc(-c3ccccc3)c3c(N[C@H](C)CO)ncnc32)cc1Cl` [Compound 12, (R)-2-[7-(3-Chloro-4-methyl-phenyl)-5-phenyl-7H-pyrrolo[2,3-d]pyrimidin-4-ylamino]-propan-1-ol], on human P2X2/3 receptor, the pIC50 is around 6.30.

The values are drawn from patent publication US20100144758A1, “AZAINDOLE P2X3 AND P2X2/3 MODULATORS” (priority 2008, published 2010).
